Reference: BindingDB's records for PubMed 20126400 (University of Oklahoma, 2010)

Assays:
Assay in all cases: Ray2010 Assay 74
[1] = target: Neuronal acetylcholine receptor subunit alpha-4/beta-2 (Homo sapiens, UniProt P17787+P43681)
Description: (§1) Table S2 shows raw Ki data for the current study combined with data collected from the literature for the ten additional compounds.

[2] = target: Metabotropic glutamate receptor 6 (Homo sapiens, UniProt O15303)
Description: as §1

[3] = target: Neuronal acetylcholine receptor subunit alpha-2/beta-2 (Homo sapiens, UniProt P17787+Q15822)
Description: as §1

[4] = target: Metabotropic glutamate receptor 4 (Homo sapiens, UniProt Q14833)
Description: as §1

[5] = target: Metabotropic glutamate receptor 5 (Homo sapiens, UniProt P41594)
Sequence of Metabotropic glutamate receptor 5 (P41594 whole entry): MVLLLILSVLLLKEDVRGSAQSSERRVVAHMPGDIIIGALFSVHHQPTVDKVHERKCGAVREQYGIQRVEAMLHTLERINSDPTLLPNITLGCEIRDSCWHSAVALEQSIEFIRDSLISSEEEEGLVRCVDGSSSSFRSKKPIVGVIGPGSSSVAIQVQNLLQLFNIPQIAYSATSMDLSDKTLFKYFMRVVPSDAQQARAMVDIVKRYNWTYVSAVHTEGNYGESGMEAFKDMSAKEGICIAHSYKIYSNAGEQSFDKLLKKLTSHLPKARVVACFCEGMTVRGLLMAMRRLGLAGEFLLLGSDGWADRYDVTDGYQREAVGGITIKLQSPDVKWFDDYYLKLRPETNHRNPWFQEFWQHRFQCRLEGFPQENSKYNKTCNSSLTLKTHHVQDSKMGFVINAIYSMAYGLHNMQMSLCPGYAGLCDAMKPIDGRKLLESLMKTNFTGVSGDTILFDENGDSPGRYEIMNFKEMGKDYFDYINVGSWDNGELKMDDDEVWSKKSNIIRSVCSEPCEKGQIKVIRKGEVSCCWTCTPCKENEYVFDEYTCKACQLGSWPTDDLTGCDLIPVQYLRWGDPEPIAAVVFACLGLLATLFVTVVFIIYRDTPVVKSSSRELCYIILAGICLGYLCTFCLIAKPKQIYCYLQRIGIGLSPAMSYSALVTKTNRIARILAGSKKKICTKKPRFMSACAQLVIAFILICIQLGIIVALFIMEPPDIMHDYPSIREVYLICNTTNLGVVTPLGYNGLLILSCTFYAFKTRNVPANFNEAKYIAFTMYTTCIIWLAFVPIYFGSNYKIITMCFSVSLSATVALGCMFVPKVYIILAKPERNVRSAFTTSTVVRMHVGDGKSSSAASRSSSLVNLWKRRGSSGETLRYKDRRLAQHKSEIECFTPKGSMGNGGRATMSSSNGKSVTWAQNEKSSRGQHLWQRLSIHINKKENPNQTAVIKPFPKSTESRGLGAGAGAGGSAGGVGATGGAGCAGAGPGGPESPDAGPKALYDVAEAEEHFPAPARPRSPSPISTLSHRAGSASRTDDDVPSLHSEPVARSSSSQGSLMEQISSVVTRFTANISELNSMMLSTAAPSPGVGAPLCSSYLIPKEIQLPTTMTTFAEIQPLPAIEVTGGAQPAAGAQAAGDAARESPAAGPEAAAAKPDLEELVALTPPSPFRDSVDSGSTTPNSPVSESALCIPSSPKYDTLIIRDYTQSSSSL
Description: as §1

[6] = target: Metabotropic glutamate receptor 1 (Homo sapiens, UniProt Q13255)
Sequence of Metabotropic glutamate receptor 1 (Q13255 whole entry): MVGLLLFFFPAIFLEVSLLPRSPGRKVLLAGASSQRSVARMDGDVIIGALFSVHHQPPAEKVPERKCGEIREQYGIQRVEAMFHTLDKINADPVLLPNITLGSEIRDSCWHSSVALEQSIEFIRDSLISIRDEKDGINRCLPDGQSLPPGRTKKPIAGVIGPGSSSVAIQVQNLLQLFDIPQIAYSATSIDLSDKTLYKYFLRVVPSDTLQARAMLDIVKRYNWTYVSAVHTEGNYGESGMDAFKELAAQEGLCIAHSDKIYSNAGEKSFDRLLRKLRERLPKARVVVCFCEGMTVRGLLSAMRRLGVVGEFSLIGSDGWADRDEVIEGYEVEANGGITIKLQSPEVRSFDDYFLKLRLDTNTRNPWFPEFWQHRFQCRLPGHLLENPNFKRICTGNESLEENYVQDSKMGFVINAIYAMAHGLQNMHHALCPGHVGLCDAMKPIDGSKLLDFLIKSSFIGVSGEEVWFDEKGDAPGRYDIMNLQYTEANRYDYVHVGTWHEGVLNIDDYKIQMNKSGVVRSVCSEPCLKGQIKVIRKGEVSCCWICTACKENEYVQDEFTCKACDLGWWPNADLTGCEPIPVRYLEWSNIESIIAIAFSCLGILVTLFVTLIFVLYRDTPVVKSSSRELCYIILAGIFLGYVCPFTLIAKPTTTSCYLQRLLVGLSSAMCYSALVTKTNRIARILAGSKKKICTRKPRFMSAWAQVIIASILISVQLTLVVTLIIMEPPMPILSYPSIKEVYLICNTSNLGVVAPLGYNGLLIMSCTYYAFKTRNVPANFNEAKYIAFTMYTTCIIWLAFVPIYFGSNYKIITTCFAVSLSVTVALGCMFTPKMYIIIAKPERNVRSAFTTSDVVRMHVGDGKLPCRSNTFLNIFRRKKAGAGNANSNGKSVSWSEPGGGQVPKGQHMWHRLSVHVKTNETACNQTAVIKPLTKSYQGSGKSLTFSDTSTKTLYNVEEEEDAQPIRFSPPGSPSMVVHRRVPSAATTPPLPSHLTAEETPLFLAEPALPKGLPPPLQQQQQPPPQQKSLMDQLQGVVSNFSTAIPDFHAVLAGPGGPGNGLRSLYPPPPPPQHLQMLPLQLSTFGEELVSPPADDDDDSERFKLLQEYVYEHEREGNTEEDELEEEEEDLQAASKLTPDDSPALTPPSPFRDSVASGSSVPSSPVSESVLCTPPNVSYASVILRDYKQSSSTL
Description: as §1

[7] = target: Neuronal acetylcholine receptor subunit alpha-4/beta-4 (Homo sapiens, UniProt P30926+P43681)
Description: as §1

[8] = target: Metabotropic glutamate receptor 8 (Homo sapiens, UniProt O00222)
Description: as §1

[9] = target: Neuronal acetylcholine receptor subunit alpha-3/beta-2 (Homo sapiens, UniProt P17787+P32297)
Description: as §1

[10] = target: Neuronal acetylcholine receptor subunit alpha-2/beta-4 (Homo sapiens, UniProt P30926+Q15822)
Description: as §1

[11] = target: Metabotropic glutamate receptor 2 (Homo sapiens, UniProt Q14416)
Description: as §1

[12] = target: Neuronal acetylcholine receptor subunit alpha-4/beta-2 (Mus musculus, UniProt O70174+Q9ERK7)
Description: as §1

Cannabinoid receptor 1 = Cannabinoid receptor 1 (Homo sapiens, UniProt P21554)
Description: as §1

[13] = target: T1, Muscarinic acetylcholine receptor M4 (Homo sapiens, UniProt P08173)
T1 sequence (P08173 whole entry): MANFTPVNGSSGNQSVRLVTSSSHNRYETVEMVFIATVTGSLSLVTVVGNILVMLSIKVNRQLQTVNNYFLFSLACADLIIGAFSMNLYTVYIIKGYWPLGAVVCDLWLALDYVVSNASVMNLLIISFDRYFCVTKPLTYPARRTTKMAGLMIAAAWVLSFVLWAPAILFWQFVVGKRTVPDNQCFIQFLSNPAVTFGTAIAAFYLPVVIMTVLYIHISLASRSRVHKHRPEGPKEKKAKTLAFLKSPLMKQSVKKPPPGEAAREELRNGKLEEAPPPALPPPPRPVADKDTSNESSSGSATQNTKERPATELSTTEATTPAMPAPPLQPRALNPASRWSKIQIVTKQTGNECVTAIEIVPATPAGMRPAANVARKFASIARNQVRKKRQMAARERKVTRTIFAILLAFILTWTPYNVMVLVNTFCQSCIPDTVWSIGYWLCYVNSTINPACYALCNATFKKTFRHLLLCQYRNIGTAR
Description: as §1

Cannabinoid receptor 2 = Cannabinoid receptor 2 (Homo sapiens, UniProt P34972)
Sequence of Cannabinoid receptor 2 (P34972 whole entry): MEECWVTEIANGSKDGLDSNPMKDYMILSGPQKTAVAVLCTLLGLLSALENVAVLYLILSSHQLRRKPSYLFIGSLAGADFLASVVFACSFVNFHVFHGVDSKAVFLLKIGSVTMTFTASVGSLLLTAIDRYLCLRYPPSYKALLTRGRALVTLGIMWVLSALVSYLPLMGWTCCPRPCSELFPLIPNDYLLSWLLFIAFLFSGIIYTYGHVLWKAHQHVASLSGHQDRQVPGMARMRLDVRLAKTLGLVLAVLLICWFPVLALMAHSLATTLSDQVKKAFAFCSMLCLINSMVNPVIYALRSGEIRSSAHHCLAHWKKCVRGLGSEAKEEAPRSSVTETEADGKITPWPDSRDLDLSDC
Description: as §1

[14] = target: T2, Prostaglandin E2 receptor EP3 subtype (Homo sapiens, UniProt P43115)
T2 sequence (P43115 whole entry): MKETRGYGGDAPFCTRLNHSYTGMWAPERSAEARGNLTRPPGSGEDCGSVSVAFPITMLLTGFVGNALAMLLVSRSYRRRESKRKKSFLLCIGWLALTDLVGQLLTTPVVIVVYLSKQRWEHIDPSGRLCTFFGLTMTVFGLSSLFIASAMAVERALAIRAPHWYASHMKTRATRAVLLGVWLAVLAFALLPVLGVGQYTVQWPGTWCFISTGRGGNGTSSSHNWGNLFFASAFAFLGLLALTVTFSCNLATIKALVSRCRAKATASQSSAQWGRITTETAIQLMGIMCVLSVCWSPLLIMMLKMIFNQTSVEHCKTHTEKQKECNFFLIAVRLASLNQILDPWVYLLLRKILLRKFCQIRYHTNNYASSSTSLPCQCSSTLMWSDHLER
Description: as §1

[15] = target: Gamma-aminobutyric acid receptor subunit beta-1 (Homo sapiens, UniProt P18505)
Description: as §1

[16] = target: T3, 5-hydroxytryptamine receptor 2C (Homo sapiens, UniProt P28335)
T3 sequence (P28335 whole entry): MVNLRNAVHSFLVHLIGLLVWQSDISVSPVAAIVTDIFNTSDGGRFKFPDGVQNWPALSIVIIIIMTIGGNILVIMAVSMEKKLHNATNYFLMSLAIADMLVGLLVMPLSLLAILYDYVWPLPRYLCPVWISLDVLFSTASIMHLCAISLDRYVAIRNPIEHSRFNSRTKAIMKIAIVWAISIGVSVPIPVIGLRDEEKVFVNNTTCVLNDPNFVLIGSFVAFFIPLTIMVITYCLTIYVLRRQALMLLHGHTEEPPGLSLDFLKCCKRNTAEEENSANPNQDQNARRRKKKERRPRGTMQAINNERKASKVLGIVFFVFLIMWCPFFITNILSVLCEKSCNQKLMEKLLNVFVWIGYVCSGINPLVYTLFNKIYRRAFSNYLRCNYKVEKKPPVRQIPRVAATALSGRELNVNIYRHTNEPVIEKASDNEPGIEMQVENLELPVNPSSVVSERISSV
Description: as §1

[17] = target: ATP-dependent translocase ABCB1 (Homo sapiens, UniProt P08183)
Description: as §1

Glutamate receptor 4 = Glutamate receptor 4 (Homo sapiens, UniProt P48058)
Description: as §1

Sequence of Metabotropic glutamate receptor 6 (O15303 whole entry): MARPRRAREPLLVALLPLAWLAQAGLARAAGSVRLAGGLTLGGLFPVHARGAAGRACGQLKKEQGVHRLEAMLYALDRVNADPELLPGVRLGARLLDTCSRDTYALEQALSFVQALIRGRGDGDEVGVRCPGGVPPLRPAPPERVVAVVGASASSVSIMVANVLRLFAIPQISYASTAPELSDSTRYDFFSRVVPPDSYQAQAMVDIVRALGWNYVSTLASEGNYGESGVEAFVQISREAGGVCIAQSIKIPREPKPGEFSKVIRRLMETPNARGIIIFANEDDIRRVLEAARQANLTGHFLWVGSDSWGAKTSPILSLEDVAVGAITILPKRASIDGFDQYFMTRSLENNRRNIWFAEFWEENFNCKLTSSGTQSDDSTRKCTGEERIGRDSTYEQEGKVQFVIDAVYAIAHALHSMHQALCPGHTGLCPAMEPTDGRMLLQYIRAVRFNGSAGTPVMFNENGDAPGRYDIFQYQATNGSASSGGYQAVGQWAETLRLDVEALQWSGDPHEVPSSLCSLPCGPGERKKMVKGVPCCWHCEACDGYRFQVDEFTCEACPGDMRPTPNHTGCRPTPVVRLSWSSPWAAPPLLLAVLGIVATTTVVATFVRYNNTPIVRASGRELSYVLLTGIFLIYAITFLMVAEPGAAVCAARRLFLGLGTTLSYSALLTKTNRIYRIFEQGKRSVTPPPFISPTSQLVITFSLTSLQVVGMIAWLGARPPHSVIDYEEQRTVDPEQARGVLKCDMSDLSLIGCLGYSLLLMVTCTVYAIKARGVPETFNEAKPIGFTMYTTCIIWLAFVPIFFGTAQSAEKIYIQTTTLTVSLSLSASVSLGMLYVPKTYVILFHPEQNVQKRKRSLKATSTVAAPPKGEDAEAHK
Sequence of Neuronal acetylcholine receptor subunit alpha-4/beta-2 (Homo sapiens, UniProt P17787+P43681) (P43681 whole entry): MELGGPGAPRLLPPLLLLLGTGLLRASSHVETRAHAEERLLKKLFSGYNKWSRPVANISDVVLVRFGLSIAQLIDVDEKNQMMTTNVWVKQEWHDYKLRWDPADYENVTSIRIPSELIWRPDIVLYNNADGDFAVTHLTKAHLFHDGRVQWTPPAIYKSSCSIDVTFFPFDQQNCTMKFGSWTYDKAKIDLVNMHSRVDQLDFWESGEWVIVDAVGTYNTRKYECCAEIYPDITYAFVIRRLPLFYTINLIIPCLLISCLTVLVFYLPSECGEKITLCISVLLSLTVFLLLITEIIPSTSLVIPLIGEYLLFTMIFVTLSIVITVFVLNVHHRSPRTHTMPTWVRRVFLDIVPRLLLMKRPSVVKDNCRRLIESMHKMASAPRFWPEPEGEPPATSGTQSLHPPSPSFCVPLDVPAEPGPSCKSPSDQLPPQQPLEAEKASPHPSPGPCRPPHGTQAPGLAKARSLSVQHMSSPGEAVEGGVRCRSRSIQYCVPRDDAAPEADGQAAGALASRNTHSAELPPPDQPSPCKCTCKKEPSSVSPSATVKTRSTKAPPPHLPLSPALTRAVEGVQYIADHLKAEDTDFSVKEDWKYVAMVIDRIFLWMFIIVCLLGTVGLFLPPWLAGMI
Sequence of Neuronal acetylcholine receptor subunit alpha-4/beta-2 (Homo sapiens, UniProt P17787+P43681) (P17787 whole entry): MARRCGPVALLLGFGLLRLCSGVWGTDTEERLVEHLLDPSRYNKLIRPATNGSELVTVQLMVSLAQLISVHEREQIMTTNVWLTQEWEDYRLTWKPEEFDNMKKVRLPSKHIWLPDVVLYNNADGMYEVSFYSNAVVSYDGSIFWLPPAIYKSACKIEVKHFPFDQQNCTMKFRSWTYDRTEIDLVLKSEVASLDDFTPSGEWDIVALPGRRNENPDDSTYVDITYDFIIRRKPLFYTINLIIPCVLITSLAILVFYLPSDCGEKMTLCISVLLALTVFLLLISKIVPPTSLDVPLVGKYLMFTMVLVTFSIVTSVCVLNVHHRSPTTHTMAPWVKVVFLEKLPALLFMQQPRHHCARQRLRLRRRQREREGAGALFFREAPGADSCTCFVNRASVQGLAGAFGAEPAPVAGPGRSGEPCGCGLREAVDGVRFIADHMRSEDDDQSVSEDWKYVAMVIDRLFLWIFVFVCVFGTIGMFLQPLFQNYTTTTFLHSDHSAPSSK

Row | Molecule | Ki [3] [µM] | Ki [9] [µM] | Ki (Cannabinoid receptor 1) [µM] | Ki [13] [µM] | Ki (Cannabinoid receptor 2) [µM] | Ki [14] [µM] | other results
1 | C[C@@H]1C[C@H](C)N1C(=O)C1C=C2c3cccc4[nH]cc(c34)C[C@H]2N(C)C1 (stereo partly drawn) [cis-2a] | > 10 | > 10 |  |  |  |  | Ki [1]: > 10 µM; Ki [2]: > 10 µM; Ki [4]: > 10 µM; Ki [5]: > 10 µM; Ki [6]: > 10 µM; Ki [7]: > 10 µM; Ki [8]: > 10 µM; Ki [10]: > 10 µM; Ki [11]: > 10 µM; Ki [12]: > 10 µM
2 | COc1ccc2[nH]cc(CCN(C)C)c2c1 [3-(2-DIMETHYLAMINOETHYL)-5-METHOXYINDOLE] |  |  | > 10 | > 10 | > 10 |  | 
3 | CNC(C)Cc1ccc2c(c1)OCO2 (stereo not given) [mdma] | > 10 | > 10 | > 10 | 8.25 |  | > 10 | Ki [15]: > 10 µM; Ki [4]: > 10 µM; Ki [5]: > 10 µM; Ki [6]: > 10 µM; Ki [7]: > 10 µM; Ki [10]: > 10 µM; Ki [11]: > 10 µM
4 | CAS_82830-44-2::(2R)-1-(4-iodo-2,5-dimethoxyphenyl)propan-2-amine::DOI,(-)::US20250270173, Compound DOI | > 10 | > 10 | > 10 | 0.578 | > 10 |  | Ki [16]: 0.0458 µM; Ki [12]: > 10 µM
5 | CCOc1cc(OC)c(CC(C)N)cc1OC (stereo not given) |  |  | > 10 | > 10 | > 10 | > 10 | Ki [16]: > 10 µM
6 | COc1ccc2[nH]cc(CCN(C(C)C)C(C)C)c2c1 [5-meo-dipt] |  |  | > 10 | > 10 | > 10 | > 10 | Ki [16]: > 10 µM
7 | CN(C)CCc1c[nH]c2cccc(O)c12 [4-hydroxy-N,N-dimethyltryptamine] |  |  | > 10 | > 10 | > 10 |  | 
8 | COc1cc(CCN)cc(OC)c1OC [3,4,5-trimethoxyphenylethylamine] |  |  | > 10 | > 10 | > 10 | > 10 | Ki [16]: > 10 µM
9 | CC(N)Cc1ccc2c(c1)OCO2 (stereo not given) |  |  | > 10 |  | > 10 |  | 
10 | CCc1cc(OC)c(CC(C)N)cc1OC (stereo not given) |  |  | > 10 |  | > 10 |  | Ki [17]: > 10 µM
11 | NCCc1c2c(c(Br)c3c1OCC3)OCC2 [2-(8-Bromo-2,3,6,7-tetrahydro-benzo[1,2-b;4,5-b']difuran-4-yl)-ethylamine] | > 10 | > 10 | > 10 | 0.52 | 8.97 |  | Ki [1]: > 10 µM; Ki [7]: > 10 µM; Ki [16]: 0.0106 µM; Ki [10]: > 10 µM; Ki [12]: > 10 µM
12 | CN(C)CCc1c[nH]c2ccccc12 [2-(1H-indol-3-yl)-N,N-dimethylethanamine] |  |  | > 10 | > 10 | > 10 |  | 
13 | CCc1cc(OC)c(CCN)cc1OC [2-(2,5-dimethoxy-4-ethylphenyl)ethylamine] |  |  | > 10 | > 10 | > 10 | > 10 | 
14 | CN(C)CCc1c[nH]c2cc(F)ccc12 [6-f-dmt] |  |  | > 10 | > 10 | > 10 | > 10 | 
15 | CCc1[nH]c2ccc(OC)cc2c1CCN(C)C [2-ethyl-5-methoxy-N,N-dimethyltryptamine] | > 10 | > 10 |  | > 10 |  |  | Ki [1]: > 10 µM; Ki (Glutamate receptor 4): > 10 µM; Ki [7]: > 10 µM; Ki [10]: > 10 µM; Ki [12]: > 10 µM
16 | COC(=O)[C@@H]1C[C@H](OC(C)=O)C(=O)[C@H]2[C@@]1(C)CC[C@H]1C(=O)O[C@H](c3ccoc3)C[C@]21C [2S,4aR,6a(R,7R,9S,10aS,10bR)-9-(acetyloxy)-2-(furan-3-yl)dodecahydro-6a,10b-dimethyl-4,10-dioxo-2H-naphtho[2,1-c]pyran-7-carboxylic acid methyl ester] |  |  |  | > 10 |  |  | Ki [16]: > 10 µM
17 | CCSc1cc(OC)c(CC(N)CC)cc1OC (stereo not given) [1-(4-Ethylsulfanyl-2,5-dimethoxy-benzyl)-propylamine] |  |  | > 10 | > 10 | > 10 | > 10 | 
18 | COc1ccc2[nH]cc(CCN(C)C(C)C)c2c1 [5-meo-mipt] |  |  |  | > 10 | > 10 | > 10 | 
19 | COc1cc(CC(C)N)c(OC)cc1C (stereo not drawn) [(+/-)2-(2,5-Dimethoxy-4-methyl-phenyl)-1-methyl-ethylamine] | > 10 | > 10 | > 10 |  | > 10 |  | Ki [1]: > 10 µM; Ki [7]: > 10 µM; Ki [10]: > 10 µM; Ki [12]: > 10 µM
20 | CCSc1cc(OC)c(CC(C)N)cc1OC (stereo not given) [2-(4-Ethylsulfanyl-2,5-dimethoxy-phenyl)-1-methyl-ethylamine] |  |  | > 10 | > 10 | > 10 | > 10 | 
21 | CCCN(CCC)CCc1c[nH]c2ccccc12 [dpt] |  |  | > 10 | > 10 | > 10 | > 10 | 
22 | COc1cc(CC(C)N)c(OC)cc1Br (stereo not drawn) [2-(4-Bromo-2,5-dimethoxy-phenyl)-1-methyl-ethylamine((-)-DOB)] |  |  | > 10 | > 10 | > 10 | > 10 | 
23 | CCN(CC)C(=O)[C@@H]1C=C2c3cccc4[nH]cc(c34)C[C@H]2N(C)C1 [[N-methyl-3H]LSD] | > 10 | > 10 |  |  |  |  | Ki [1]: > 10 µM; Ki [2]: > 10 µM; Ki [4]: > 10 µM; Ki [5]: > 10 µM; Ki [6]: > 10 µM; Ki [7]: > 10 µM; Ki [8]: > 10 µM; Ki [10]: > 10 µM; Ki [11]: > 10 µM; Ki [12]: > 10 µM
24 | COc1ccc2[nH]c(C)c(CCN(C)C)c2c1 [[2-(5-Methoxy-2-methyl-1H-indol-3-yl)-ethyl]-dimethyl-amine (C2H2O)] | > 10 | > 10 |  | > 10 |  |  | Ki [1]: > 10 µM; Ki (Glutamate receptor 4): > 10 µM; Ki [7]: > 10 µM; Ki [10]: > 10 µM; Ki [12]: > 10 µM
25 | COc1cc(CCN)c(OC)cc1Br |  |  | > 10 | > 10 | > 10 | > 10 | 
26 | CCSc1cc(OC)c(CCN)cc1OC [2C-T-2] |  |  | > 10 | > 10 | > 10 | > 10 | 
27 | C[C@@H]1C[C@@H](C)N1C(=O)C1C=C2c3cccc4[nH]cc(c34)C[C@H]2N(C)C1 (stereo not given in full) [rr-2b] | > 10 | > 10 |  |  |  |  | Ki [1]: > 10 µM; Ki [2]: > 10 µM; Ki [4]: > 10 µM; Ki [5]: > 10 µM; Ki [6]: > 10 µM; Ki [7]: > 10 µM; Ki [8]: > 10 µM; Ki [10]: > 10 µM; Ki [11]: > 10 µM; Ki [12]: > 10 µM
28 | CC(C)N(CCc1c[nH]c2ccccc12)C(C)C [dipt] |  |  | > 10 | > 10 | > 10 | > 10 | Ki [16]: > 10 µM
